Reference: the CheMixHub ionic liquid set

Assay: xn = mol fraction of the nth substance listed

CC(=O)[O-].CC[n+]1ccn(C)c1 + O
Settings	electrical conductivity [S/m]	viscosity [mPa·s]
293.1 K, 101 kPa, x2 = 0.517	–	59.4
293.1 K, 101 kPa, x2 = 0.578	–	51.1
293.1 K, 101 kPa, x2 = 0.705	–	32.7
293.15 K, 100 kPa, x1 = 0.7987	0.314	–
293.15 K, 100 kPa, x1 = 1	0.223	–
293.15 K, 100 kPa, x2 = 0.2088	–	138.9
293.15 K, 101.3 kPa, x2 = 0	0.243	–
293.15 K, 101.3 kPa, x2 = 0.0774	0.327	–
293.15 K, 101.3 kPa, x2 = 0.1429	0.562	–
293.15 K, 101.3 kPa, x2 = 0.3065	1.016	–
293.15 K, 101.3 kPa, x2 = 0.4381	1.537	–
293.15 K, 101.3 kPa, x2 = 0.5278	2.03	–
293.15 K, 101.3 kPa, x2 = 0.7257	4.136	–
293.15 K, 101.3 kPa, x2 = 0.8083	5.417	–
293.15 K, 101.3 kPa, x2 = 0.8554	6.014	–
293.15 K, 101.3 kPa, x2 = 0.8891	5.902	–
293.15 K, 101.3 kPa, x2 = 0.9279	2.979	–
293.15 K, 101.3 kPa, x2 = 0.9308	2.707	–
293.15 K, 101.3 kPa, x2 = 0.9425	1.866	–
293.15 K, 101.3 kPa, x2 = 0.9559	1.121	–
293.15 K, 101.3 kPa, x2 = 0.9625	0.8	–
298.15 K, 101 kPa, x2 = 0	–	132.9
298.15 K, 101 kPa, x2 = 0.0992	–	109.7
298.15 K, 101 kPa, x2 = 0.266	–	85
298.15 K, 101 kPa, x2 = 0.4207	–	59.5
298.15 K, 101 kPa, x2 = 0.5408	–	44.4
298.15 K, 101 kPa, x2 = 0.6135	–	35.9
303.15 K, 100 kPa, x1 = 0.2003	2.37	–
303.15 K, 100 kPa, x1 = 0.7987	0.527	–
303.15 K, 100 kPa, x2 = 0.4	–	52.7
303.15 K, 101 kPa, x2 = 0.132	–	84
313.15 K, 100 kPa, x2 = 0.2088	–	47.2
313.15 K, 100 kPa, x2 = 0.4	–	33.9
313.15 K, 101 kPa, x2 = 0.188	–	46.7
313.15 K, 101 kPa, x2 = 0.5408	–	23.49
323.15 K, 100 kPa, x1 = 0.5984	1.63	–
323.15 K, 100 kPa, x2 = 0.2088	–	30.12
323.15 K, 101 kPa, x2 = 0.132	–	33.1
328.15 K, 101 kPa, x2 = 0.0992	–	27
328.15 K, 101 kPa, x2 = 0.4207	–	17.5
328.15 K, 101 kPa, x2 = 0.6805	–	9.43
328.15 K, 101 kPa, x2 = 0.8134	–	5.3
333.1 K, 101 kPa, x2 = 0.517	–	12.27
333.1 K, 101 kPa, x2 = 0.578	–	11
333.15 K, 100 kPa, x1 = 0.9481	1.31	–
333.15 K, 100 kPa, x1 = 1	1.31	–
333.15 K, 101 kPa, x2 = 0.188	–	21.4
333.15 K, 101 kPa, x2 = 0.266	–	19.5
343.15 K, 100 kPa, x1 = 1	1.75	–
343.15 K, 100 kPa, x2 = 0.2088	–	15.07
343.15 K, 100 kPa, x2 = 0.4	–	12.24
343.15 K, 100 kPa, x2 = 0.8023	–	3.8
343.15 K, 101 kPa, x2 = 0.222	–	14.52
343.15 K, 101 kPa, x2 = 0.5408	–	8.98
343.15 K, 101 kPa, x2 = 0.6805	–	6.22
353.15 K, 101 kPa, x2 = 0.102	–	12.96
353.15 K, 101 kPa, x2 = 0.132	–	12.58
353.15 K, 101 kPa, x2 = 0.188	–	11.89
353.15 K, 101 kPa, x2 = 0.355	–	10.11
363.15 K, 101 kPa, x2 = 0.072	–	10.28
363.15 K, 101 kPa, x2 = 0.102	–	10.09
363.15 K, 101 kPa, x2 = 0.132	–	9.82
373.15 K, 101 kPa, x2 = 0.188	–	7.48

CC(=O)[O-].CC[n+]1ccn(C)c1 + OC[C@@H](O)[C@@H](O)[C@H](O)[C@@H](O)CO
Settings	viscosity [mPa·s]
313.15 K, 100 kPa, x2 = 0	53.4

CCCC[n+]1ccn(C)c1.N#C[N-]C#N + O
100 kPa, x1 = 0.6252
Settings	viscosity [mPa·s]
303 K	15.03
308 K	12.94
313 K	11.27
318 K	9.91
323 K	8.77
